Tests used:
[1] = system: Namalwa tumors; experiment: Staged human NHL Namalwa xenograft model; format: in vivo, T cell-deficient nude mice; conditions: CHIR-12.12 1 mg/kg ip once a week for 4 weeks; IL-2 0.5 mg/kg sc daily for 8 days; N=10 mice/group
From the text: Therefore, the component of these mAbs' anti-tumor activity based on blocking the tumor proliferation/survival signal is not expected to contribute to anti-tumore efficacy in these models.
To ensure consistent tumor growth, T cell-deficient nude mice were whole-body irradiated at 3 Gy to further suppress the immune system one day before tumor inoculation. Tumor cells were inoculated subcutaneously in the right flank at 5×10^6 cells per mouse. Treatment was initiated when tumor volume reached about 100-200 mm^3 (about 7 days after tumor inoculation). […] Tumor volumes were recorded twice a week. Data were analyzed using ANOVA.

[2] = system: IM-9 tumor cells; experiment: IM-9 multiple myeloma xenograft, unstaged conditional survival model; set-up: species or system SCID mice; conditions: mouse, in vivo
Description: (§1) SCID mice were inoculated subcutaneously with IM-9 tumor cells (a human multiple myeloma cell line expressing both CD40 and CD20) in 50% […]™ at 5×10^6 cells per mouse. In unstaged models, treatment was initiated one day after tumor implantation. In staged models, treatment was initiated when tumor volume reached 150-200 mm^3. Tumor-bearing mice were injected with anti-CD40 mAb intraperitoneally once a week at the indicated doses. Data were analyzed using the log-rank test.

[3] = system: IM-9 tumor cells; experiment: IM-9 multiple myeloma xenograft, staged subcutaneous model; format: in vivo, SCID mice
Description: as §1, with “Tumor-bearing mice were injected with anti-CD40 mAb intraperitoneally once a week at the indicated doses.” left out

IL-2: IL-2 used in the xenograft example; b966 says des-alanyl-1, serine-125 human IL-2 is used in the examples
growth of Namalwa tumors, single agent [1]: inhibited the growth of Namalwa tumors

CC(C)C[C@H](NC(=O)[C@H](Cc1ccccc1)NC(=O)c1cnccn1)B(O)O [bortezomib]
outcome of treated group [2]: euthanized between day 18 and day 26 | tumor growth inhibition ([3]; 0.5 mg/kg twice a week): did not inhibit tumor growth | tumor growth inhibition ([3]; MTD 1 mg/kg twice a week): 30%
